Test: physchem
Conditions: octan-1-ol/water

Compound: CCCCC1(CC)C(=O)NC(=O)NC1=O [BUTETHAL]
- logD (pH 7.4): 1.5

Compound: CC(N)Cc1c[nH]c2ccc(OCc3cccs3)cc12 (stereo not given) [BW-723C86]
- logD (pH 7.4): 0.48

Compound: CCCCCOC(=O)Nc1nc(=O)n([C@@H]2O[C@H](C)[C@@H](O)[C@H]2O)cc1F [CAPECITABINE]
- logD (pH 7.4, LogD7.4): 0.67

Compound: O=C1CCCCCN1 [CAPROLACTAM]
- logD (pH 7.4, LogD7.4): -0.08

Compound: CCN(CC)CCOCCOC(=O)C1(c2ccccc2)CCCC1 [CARBETAPENTANE]
- logD (pH 7.4, LogD7.4): 1.33

Compound: C[C@@](Cc1ccc(O)c(O)c1)(NN)C(=O)O [CARBIDOPA ANHYDROUS]
- logD (pH 7.4, LogD7.4): -0.7

Compound: CCCC(C)(COC(N)=O)COC(=O)NC(C)C (stereo not given) [CARISOPRODOL]
- logD (pH 7.4): 2.01

Compound: Nc1nc2ccc(Cl)cc2c2nc(-c3ccco3)nn12 [CGS-15943]
- logD (pH 7.4): 3.98

Compound: O=C(O)CCCc1ccc(N(CCCl)CCCl)cc1 [CHLORAMBUCIL]
- logD (pH 7.4): 1.47

Compound: O=c1ccoc2ccccc12 [CHROMONE]
- logD (pH 7.4, LogD7.4): 1.4

Compound: O=c1cc(-c2ccccc2)oc2cc(O)cc(O)c12 [CHRYSIN]
- logD (pH 7.4, LogD7.4): 3.83

Compound: O=C(c1ccc(OCCCc2cnc[nH]2)cc1)C1CC1 [CIPROXIFAN]
- logD (pH 7.4, LogD7.4): 2.68

Compound: CCN(CC)CCCNCc1cc(Cl)c2cccnc2c1O [CLAMOXYQUIN]
- logD (pH 7.4, LogD7.4): 0.72

Compound: NC(=NCc1ccc(Cl)cc1)SCCCc1cnc[nH]1 [CLOBENPROPIT]
- logD (pH 7.4): 1.13

Compound: COc1cc2c(c(OC)c1OC)-c1ccc(OC)c(=O)cc1[C@@H](NC(C)=O)CC2 [COLCHICINE]
- logD (pH 7.4): 0.82

Compound: COc1ccccc1CN[C@H]1CCCN[C@H]1c1ccccc1 [CP-99994]
- logD (pH 7.4, LogD7.4): 1.5

Compound: CC1CC(OC(=O)C(O)c2ccccc2)CC(C)(C)C1 (stereo not given) [CYCLANDELATE]
- logD (pH 7.4, LogD7.4): 2.31

Compound: NS(=O)(=O)c1cc2c(cc1Cl)NC(C1CC3C=CC1C3)NS2(=O)=O (stereo not given) [CYCLOTHIAZIDE]
- logD (pH 7.4, LogD7.4): 2.12

Compound: CN1CCC(=C2c3ccccc3C=Cc3ccccc32)CC1 [CYPROHEPTADINE]
- logD (pH 7.4, LogD7.4): 3.06

Compound: N[C@H](Cc1c[nH]c2ccccc12)C(=O)O [D-TRYPTOPHAN]
- logD (pH 7.4, LogD7.4): -0.92

Compound: Cc1cccc([C@H](C)c2cnc[nH]2)c1C [DEXMEDETOMIDINE]
- logD (pH 7.4): 2.79

Compound: NS(=O)(=O)c1cc(Cl)c(Cl)c(S(N)(=O)=O)c1 [DICHLORPHENAMIDE]
- logD (pH 7.4, LogD7.4): 0.92

Compound: CCN(CC)CCOC(=O)C1(C2CCCCC2)CCCCC1 [DICYCLOMINE]
- logD (pH 7.4, LogD7.4): 3.72

Compound: CN(C)c1ncnc2nc[nH]c12 [DIMETHYLADENINE]
- logD (pH 7.4, LogD7.4): 0.95

Compound: NC(Cc1c[nH]c2ccccc12)C(=O)O (stereo not drawn) [DL-TRYPTOPHAN]
- logD (pH 7.4, LogD7.4): -1.17

Compound: CC(=O)O[C@@]12CO[C@@H]1C[C@H](O)[C@@]1(C)C(=O)[C@H](O)C3=C(C)[C@@H](OC(=O)[C@H](O)[C@@H](NC(=O)OC(C)(C)C)c4ccccc4)C[C@@](O)([C@@H](OC(=O)c4ccccc4)[C@H]21)C3(C)C [DOCETAXEL]
- logD (pH 7.4, LogD7.4): 3.4

Compound: CCCCC(CC)COC(=O)CC(C(=O)OCC(CC)CCCC)S(=O)(=O)O (stereo not given) [DOCUSATE]
- logD (pH 7.4, LogD7.4): 2.93

Compound: CN(C)CCOC(C)(c1ccccc1)c1ccccn1 (stereo not given) [DOXYLAMINE]
- logD (pH 7.4, LogD7.4): -0.2

Compound: Cn1c(=O)c2c(ncn2CC(O)CO)n(C)c1=O (stereo not given) [DYPHYLLINE]
- logD (pH 7.4, LogD7.4): -1.25

Compound: CCN(CC)CCOc1ccc(/C(=C(/Cl)c2ccccc2)c2ccccc2)cc1 [ENCLOMIPHENE]
- logD (pH 7.4, LogD7.4): 4.09

Compound: Nc1ccccc1NC(=O)c1ccc(CNC(=O)OCc2cccnc2)cc1 [ENTINOSTAT]
- logD (pH 7.4, LogD7.4): 1.26

Compound: CCCCc1ncc(/C=C(\Cc2cccs2)C(=O)O)n1Cc1ccc(C(=O)O)cc1 [EPROSARTAN]
- logD (pH 7.4, LogD7.4): -0.9

Compound: NC(=O)N1c2ccccc2C[C@H](O)c2ccccc21 [ESLICARBAZEPINE]
- logD (pH 7.4, LogD7.4): 0.79

Compound: C=C(CC)C(=O)c1ccc(OCC(=O)O)c(Cl)c1Cl [ETHACRYNIC ACID]
- logD (pH 7.4, LogD7.4): 0.02

Compound: CCC1(C)CC(=O)NC1=O (stereo not given) [ETHOSUXIMIDE]
- logD (pH 7.4): 0.23

Compound: CCc1cc2c(s1)-n1c(C)nnc1CN=C2c1ccccc1Cl [ETIZOLAM]
- logD (pH 7.4): 2.52

Compound: C=C1C[C@@H]2[C@H](CC[C@]3(C)C(=O)CC[C@@H]23)[C@@]2(C)C=CC(=O)C=C12 [EXEMESTANE]
- logD (pH 7.4): 2.98

Compound: NC(N)=Nc1nc(CSCCC(N)=NS(N)(=O)=O)cs1 [FAMOTIDINE]
- logD (pH 7.4, LogD7.4): -0.6

Compound: O=C(O)Cc1csc(-c2ccc(Cl)cc2)n1 [FENCLOZIC ACID]
- logD (pH 7.4, LogD7.4): -0.22

Compound: Oc1ccc(C2CNCCc3c2cc(O)c(O)c3Cl)cc1 (stereo not given) [FENOLDOPAM]
- logD (pH 7.4, LogD7.4): 0.87

Compound: Cc1c(-c2ccccc2)oc2c(C(=O)OCCN3CCCCC3)cccc2c1=O [FLAVOXATE]
- logD (pH 7.4, LogD7.4): 3.42

Compound: CC(=O)[C@@]1(O)CC[C@H]2[C@@H]3C[C@H](C)C4=CC(=O)C=C[C@]4(C)[C@@]3(F)[C@@H](O)C[C@@]21C [FLUOROMETHOLONE]
- logD (pH 7.4, LogD7.4): 2.65

Compound: CCN(CC)CCN1C(=O)CN=C(c2ccccc2F)c2cc(Cl)ccc21 [FLURAZEPAM]
- logD (pH 7.4): 2.38

Compound: COc1ccc(-c2coc3cc(O)ccc3c2=O)cc1 [FORMONONETIN]
- logD (pH 7.4, LogD7.4): 3.05

Compound: CCOC(=O)c1ccc(OC(=O)CCCCCNC(=N)N)cc1 [GABEXATE]
- logD (pH 7.4, LogD7.4): 2.41

Compound: Nc1ccn([C@@H]2O[C@H](CO)[C@@H](O)C2(F)F)c(=O)n1 [GEMCITABINE]
- logD (pH 7.4, LogD7.4): -1.5

Compound: O=c1c(-c2ccc(O)cc2)coc2cc(O)cc(O)c12 [GENISTEIN]
- logD (pH 7.4, LogD7.4): 3.06

Compound: O=C(OCC(O)CO)c1ccccc1Nc1ccnc2cc(Cl)ccc12 (stereo not given) [GLAFENINE]
- logD (pH 7.4, LogD7.4): 3.5

Compound: Cc1cc2c(C(C)C)c(O)c(O)c(C=O)c2c(O)c1-c1c(C)cc2c(C(C)C)c(O)c(O)c(C=O)c2c1O [GOSSYPOL]
- logD (pH 7.4): 2.75

Compound: COc1ccccc1OCC(O)CO (stereo not given) [GUAIFENESIN]
- logD (pH 7.4, LogD7.4): 0.24

Source: ChEMBL document CHEMBL3301361, “Experimental in vitro DMPK and physicochemical data on a set of publicly disclosed compounds”
